# Reference: patent US20050288227A1, “Use of thioredoxin measurements for diagnostics and treatments” (priority 2002, published 2005)
# Read-outs that look alike come from different tables or passages of the source.
# Tests used:
# HDAC = conditions: literature statement, cited from earlier work
# [1] = test system: non-small cell lung cancer; conditions: Phase II, cited from earlier work
# [2] = test system: metastatic renal cell carcinoma; conditions: Phase II; cited from earlier work
# [3] = phase I; cited from earlier work
# [4] = test system: WI38 (human lung fibroblast); assay: Cell growth (cell number, trypan blue / Guava); type: cell-based; conditions: WI38 cells, FIG. 2B
# Description: (§1) HeLa (human cervical carcinoma), WI38 (human lung fibroblast), WI38-VA13 (SV-40 transformed human lung fibroblast), MCF-7 (human breast adenocarcinoma), T-24 human bladder transitional cell carcinoma), and LNCAP (human prostate adenocarcinoma) were obtained from the American type culture collection and cultured in accordance with the instructions. ARP-1 (human multiple myeloma) was generously provided by Dr. J. Hardoc (Arkansas Cancer Research Center, Little Rock) and cultured as indicated by the source.
# (§2) Cells were harvested by trypsinization. Cell number and viability were measured by trypan blue dye exclusion and by Guava PCA-96 via count flex reagent according to the manufacturer's instruction (Guava).
# [5] = test system: WI38-VA13 (SV-40 transformed human lung fibroblast); assay: Cell growth (cell number, trypan blue / Guava); type: cell-based; conditions: VA13 cells, FIG. 2A
# Description: as §1, §2
# [6] = test system: WI38 (human lung fibroblast); assay: SAHA-induced apoptosis / viability; type: cell-based; conditions: normal fibroblast WI38 cells, FIGS. 2-3
# Description: as §1, §2
# [7] = test system: WI38-VA13 (SV-40 transformed human lung fibroblast); assay: SAHA-induced apoptosis / viability; type: cell-based
# Description: as §1, §2
# TRX [8] = assay: Northern blot of TRX mRNA in WI38; type: cell-based, human; conditions: WI38 cultured with 5 μmol/l SAHA, FIG. 4A
# Protocol: Cells were cultured and recovered by centrifugation and RNA was prepared as described (Richon, V. M., et al., 1996, Proc. Natl. Acad. Sci. USA. 93:5705-5708). Total RNA (10 μg) was analyzed by northern blotting using a ^32P-labeled 1.1-kb TBP-2 coding region cDNA probe or a 500 bp cDNA probe for human TRX (Butler et al., 2002, Proc. Natl. Acad. Sci. USA 99:11700-11705). Loading was determined using a ^32P labeled 50-mer 18s rRNA oligonucleotide.
# TRX [9] = assay: Western blot of TRX protein in WI38; type: cell-based, human; conditions: WI38 cultured with 5 μmol/l SAHA, FIG. 4B
# Protocol: (§3) Typically, whole cell lysates were prepared using a buffer (50 mM Tris-HCL pH 8, 300 mM NaCl, 5 mM EDTA, 0.5% NP-40, inhibitor pellet from Roche). Next, 10-25 μg of cell extract were subjected to standard SDS-poly acrylamide gel electrophoresis using 10%, 15%, and 18% criterion gels (Bio-Rad). After transferring to PVDF membrane (Amersham Biosciences), the membranes were blocked with 5% BSA PBS-Tween (0.1%). The membranes were then incubated with specific primary antibody and horseradish peroxidase-labeled secondary antibody. Immunoprecipitation was based on the protocol of Santa Cruz Biotechnology. Briefly, 100-500 μg of total cellular protein were applied and incubated with protein agarose (Ausubel, F. M., et al. Current Protocols in Molecular Biology. 10.16 John Wiley & Sons. 2001).
# (§4) TBP-2 antiserum was generated in rabbits (Pocono Farms) using following sequence (peptide) CYM DVI PED HRL ESP (SEQ ID NO:7). Anti-TRX was prepared in the laboratory of Dr. Arne Holmgren (Karolinska institute) as a goat polyclonal antibody. Anti-tubulin was purchased from Oncogene.
# (§5) TBP-2 has been identified as a protein that associates with the active (reduced) form of TRX, a dithiol-reducing redox regulatory protein (Nishiyama, A., et al., 1999, J. Biol. Chem. 274, 21645-21650). Binding of TBP-2 to TRX both inhibits the thiol-reducing activity and reduces the level of expression of TRX. […]
# TRX [10] = assay: Western blot of TRX protein in VA13; type: cell-based, human; conditions: VA13 cultured with 5 μmol/l SAHA, FIG. 4B
# Protocol: as §3, §4, §5
# [11] = test system: acetylated histones in PMN cells; conditions: following a single oral dose; cited from earlier work
# [12] = test system: solid and hematological tumors; conditions: cited from earlier work
# tumor growth = conditions: animals; cited from earlier work
# [13] = oral formulation of PB; cited from earlier work
# [14] = test system: acute myelogenous leukemia; conditions: a patient with acute myelogenous leukemia; cited from earlier work
smiles,measurement,setting,value
CC(=O)Nc1ccc(C(=O)Nc2ccccc2N)cc1 [CI-994],HDAC inhibitory potency (level of activity),HDAC,less potent than the corresponding hydroxamates and cyclic tetrapeptides
same,patients having a partial response to therapy,[1]; 32 patients,7%
same,patients having stable disease for over 8 weeks,[1],28%
same,patients with stable disease for greater than 8 weeks,[2],58%
O=C(/C=C/c1ccc(CN(CCO)CCc2c[nH]c3ccccc23)cc1)NO [LAQ824],HDAC inhibitory potency (level of activity),HDAC,nanomolar inhibitor
"Nc1ccccc1NC(=O)c1ccc(CNC(=O)OCc2cccnc2)cc1 [MS-275, N-(2-aminophenyl)-4-[N-(pyridin-3-yl-methoxycarbonyl)aminomethyl] benzamide]",HDAC inhibitory potency (level of activity),HDAC,less potent than the corresponding hydroxamates and cyclic tetrapeptides
same,half-life,[3],longer than expected
"O=C(CCCCCCC(=O)Nc1ccccc1)NO [SAHA, suberoylanilide hydroxamic acid]",SAHA dose that induces growth arrest,[4],≥ 2.5 µM
same,SAHA dose that induces growth arrest,[5],≥ 2.5 µM
same,apoptosis,[6],little or no apoptosis
same,growth arrest and apoptosis,"[7]; transformed VA13, FIGS. 2-3",induced growth arrest and apoptosis
same,SAHA concentration sufficient to induce significant apoptosis,"[7]; transformed cells, after 24-48 hours of SAHA treatment, FIG. 3A",1.25 to 2.5 µmol/L
same,TRX mRNA expression,TRX [8],increased significantly
same,TRX protein levels,TRX [9],increased significantly
same,TRX protein levels,TRX [10],quickly decrease to undetectable levels
same,persistence of accumulation of acetylated histones in PMN cells,[11],up to 10 hrs
same,drug related deaths,"[12]; oral SAHA, patients",no drug related deaths
same,longest duration of therapy (durable responses),"[12]; oral SAHA, patients",over 18 months
same,oral bioavailability,[12]; oral formulation of SAHA,good oral bioavailibity
same,toxicity to the animal,tumor growth,no toxicity
C/C=C1\NC(=O)[C@H]2CSSCC/C=C/[C@H](CC(=O)N[C@H](C(C)C)C(=O)N2)OC(=O)[C@H](C(C)C)NC1=O [depsipeptide],HDAC inhibitory potency (level of activity),HDAC,active at nanomolar levels
same,HDAC inhibitory potency (level of activity),HDAC; listed as Depsipeptide,inhibits HDACs at nanomolar concentrations
"O=C(O)CCCc1ccccc1 [phenyl butyrate, Phenyl Butyrate]",HDAC inhibitory potency (level of activity),HDAC,millimolar levels of activity
same,biologic active plasma concentrations reached,[13],0.5 mM
same,oral bioavailability,[13],good bioavailability
"CCCC(CCC)C(=O)O [valproic acid, Valproic Acid]",HDAC inhibitory potency (level of activity),HDAC,millimolar levels of activity
same,clinical response,[14],transient partial remission
